# No end group written: not given here.
# How the values were obtained:
# Type in all cases: cell-based
# INS-1 832/13 cells = assay: GLP-1 mediated insulin secretion in INS-1 832/13 cells; details: GLP-1 at 10 nM, 5 mM glucose
# Experimental: INS-1 832/13 cells were cultured in medium composed of RPMI 1640 medium supplemented with 10% fetal bovine serum, 50 IU/mL penicillin, 50 mg/L streptomycin, 10 mM HEPES, 2 mM L-glutamine, 1 mM sodium pyruvate, and 50 µM beta-mercaptoethanol. Cells were split twice a week, grown in a 37°C incubator under a humidified atmosphere containing 5% CO2 and plated at (60,000 cells/well) in a 96-well plate, two days prior to the experiment. Cells were washed twice with glucose-free Krebs-Ringer Bicarbonate buffer (KRB) (116 mM NaCl, 1.8 mM CaCl2, 0.8 mM MgSO4, 5.4 mM KCl, 1 mM NaH2PO4, 26 mM NaHCO3, and 0.2% fatty-acid free BSA, pH 7.4) followed by preincubation for 1 h at 37°C in glucose-free KRB and the indicated concentration of GRK compounds or vehicle (DMSO) were added. The final DMSO concentration was 0.1%. After 30 min incubation at 37°C, 2 mM or 5 mM glucose and 10 nM GLP-1 were added to the wells for a final volume of 200 μL. After further incubation for 1 hour at 37°C, 20 μL of the culture supernatant was diluted 1:15 in the Dilution Buffer provided in the Insulin High Range Assay HTRF Kit (Cisbio, Bedford, MA). Insulin was detected using the Insulin High Range Assay HTRF Kit according to the manufacturer’s instructions (Cisbio, Bedford, MA). All results were obtained in 5 replicates.
# [1] = system: β-arrestin recruitment to the GLP-1R; assay: GLP-1 mediated β-arrestin recruitment assay (PathHunter eXpress GLP1R CHO-K1 β-Arrestin cells); details: CHO-K1 cells stably expressing human GLP-1 receptor and β-arrestin
# Experimental: PathHunter® eXpress GLP1R CHO-K1 β-Arrestin cells were plated at 6000 cells/well in a 384-well, PDL, white and opaque plate in F12 medium containing 10% FBS, 0.3 mg/ml hygromycin, and 0.8 mg/ml G418. The plate was incubated for two days in a humidified incubator at 37°C and 5% CO2 prior to the experiment. On the day of the exeperiment, the cells were washed once with the Assay Buffer (HBSS with calcium and magnesium, 20 mM Hepes, and 0.1% fatty-acid free BSA) followed by a 10 minute preincubation with GRK inhibitors or vehicle (DMSO) at the indicated concentrations. The final DMSO concentration was 0.1%. GLP-1 was added to the indicated concentrations, and incubation was continued for an additional 90 minutes at 37°C. The detection reagent was then added the cells, followed by a 60 minute incubation at the room temperature. The plate was read on MicroBeta LumiJet (PerkinElmer, Waltham, MA). In this cellular system, the GLP-1 receptor is fused in frame with the small enzyme fragment of ProLinkTM and co-expressed in cells expressing a fusion of the larger deletion mutant of β-gal, also called enzyme acceptor. […] The cellular β-gal enzyme activity is measured using chemiluminescent detection reagents.
# mouse pancreatic islets = assay: Glucose stimulated insulin secretion (GSIS) in isolated mouse pancreatic islets; details: 20 nM GLP-1, 2 mM glucose
# Experimental: Islets were isolated from mouse pancreas by collagenase digestion ([20]). The collagenase was dissolved in Hanks’ balanced salt solution (Invitrogen, Carlsbad, CA) containing 10 µg/ml DNase I (Roche Diagnostics, Indianapolis, IN) and 0.2% BSA, and was subsequently injected into the common bile duct. The pancreas was removed and incubated at 37°C for 20 min and washed three times with Hanks’ balanced salt solution and islets were collected under a microscope. Purified islets were used after an overnight incubation in RPMI 1640 medium containing 5.5 mmol/l glucose and 10% fetal bovine serum in a humidified atmosphere containing 5% CO2/95% air at 37°C. A group of 7 islets was preincubated in Krebs Ringer bicarbonate buffer (KRBH) containing 0.2% BSA and 2 mM glucose for 40 min at 37°C. The indicated concentration of GRK compounds or vehicle (DMSO) were added. The final DMSO concentration was 0.1%. After 30 min incubation at 37°C, 2 mM or 10 mM glucose along with 20 nM GLP-1 were added to wells. After further incubation for 1 hour at 37°C with shaking, culture supernatant was collected, and insulin was detected using the Insulin High Range Assay HTRF Kit according to the manufacturer’s instructions (Cisbio, Bedford, MA).
substance,measurement,setting,value
"Human GLP-1 (7-36) amide (HAEGTFTSDVSSYLEGQAAKEFIAWLVKGR-NH2; UniProt P01275 98-127, looked up, fragment)",insulin secretion,INS-1 832/13 cells,stimulated insulin secretion
same,EC80 for increase of cellular β-gal enzyme activity (β-arrestin recruitment),[1],approximately 100 nM
same,"insulin secretion at 2 mM glucose, GLP-1 alone",mouse pancreatic islets,did not stimulate insulin secretion

# — publication PMC8160450, “GRK Inhibition Potentiates Glucagon-Like Peptide-1 Action” (Frontiers in Endocrinology, 2021)
